In paper PMC12305494, “Discovery of PXR Antagonist MI891 and PXR Degrader MI1013 and Their Roles in Hepatic Gene Regulation” (Journal of Medicinal Chemistry, 2025):
Changes are numbered by the printed parent chain. Read-outs that look alike come from different tables or passages of the source.

Assays:
human CAR LBD [1] = target: T1, human CAR LBD (Homo sapiens, UniProt Q14994); assay: LanthaScreen TR-FRET CAR Coactivator assay; format: biochemical; settings: nb = no binding
T1 sequence (Q14994 103-352): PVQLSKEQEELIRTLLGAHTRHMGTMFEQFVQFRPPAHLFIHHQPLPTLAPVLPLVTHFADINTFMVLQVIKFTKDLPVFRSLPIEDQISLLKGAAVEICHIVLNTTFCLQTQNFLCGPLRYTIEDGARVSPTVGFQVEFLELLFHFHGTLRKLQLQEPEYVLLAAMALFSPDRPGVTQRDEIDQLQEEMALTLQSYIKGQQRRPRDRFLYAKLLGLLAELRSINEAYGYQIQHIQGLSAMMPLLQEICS
Protocol: We utilized the LanthaScreen TR-FRET CAR Coactivator Binding Assay Kit, goat (Thermo Fisher Scientific, Cat. No. PV4836), which includes GST-tagged human CAR LBD and a fluorescein-labeled PGC1α coactivator peptide. The assay was performed with slight modifications to the manufacturer’s protocol, as previously reported. […] The interaction with the PXR ligand-binding domain (LBD) was assessed using the LanthaScreen TR-FRET PXR Competitive Binding Assay (Thermo Fisher Scientific, PV4839), as previously described. This assay quantifies the ability of test compounds to displace a fluorescent PXR ligand from the receptor. Fluorescence readings were taken on a Synergy 2 Multi-Mode Microplate Reader (BioTek, Winooski, VT). The half-maximal inhibitory concentration (IC50) for PXR LBD was calculated from at least eight data points using GraphPad Prism software.

human CAR LBD [2] = target: T2, human CAR LBD (Homo sapiens, UniProt Q14994); assay: CAR LBD assembly assay (CAR AA); format: cell-based; settings: na = no activity; tox = cytotoxicity in HepG2 cells
T2 construct: constructs encoding helices 3–12 and helix 1 of human CAR LBD; expressed in transfected cells; host or cells: HepG2
T2 sequence (Q14994 103-150 isoform Q14994-2 limits assumed): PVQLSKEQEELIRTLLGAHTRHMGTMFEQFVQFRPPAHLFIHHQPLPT
T2 sequence (Q14994 151-348 isoform Q14994-2 limits assumed): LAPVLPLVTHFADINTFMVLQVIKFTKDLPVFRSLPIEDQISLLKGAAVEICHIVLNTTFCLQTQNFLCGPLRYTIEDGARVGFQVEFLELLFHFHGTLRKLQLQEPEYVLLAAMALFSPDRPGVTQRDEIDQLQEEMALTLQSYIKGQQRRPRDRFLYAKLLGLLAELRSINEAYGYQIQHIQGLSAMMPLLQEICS
Text: The CAR LBD assembly assay used constructs encoding helices 3–12 and helix 1 of human CAR LBD as described before. GL4.31[luc2P/GAL4UAS/Hygro] (pGAL4 UAS-luc) luciferase reporter vector and pRL-TK Renilla expression vector (Promega) were used in the assay in HepG2 cells transfected using Lipofectamine 3000.

[3] = Plasma stability, human plasma; format: in vitro ADME; settings: up to 120 min, read-out: Plasma stability, t1/2 (min), human
[4] = Plasma stability, mouse plasma; format: in vitro ADME; settings: up to 120 min, read-out: Plasma stability, t1/2 (min), mouse
Protocol: (§1) The protocols and reagents for the plasma protein binding assay and metabolic stability testing in human and mouse liver microsomes are detailed in our previous report. Briefly, metabolic stability of compounds was assessed at a single concentration (5 μM) at t = 0, 10, 30, and at t = 45 min. The stability of compounds was tested in human and mouse microsomes (ThermoFisher Scientific). Compounds were tested in triplicate with or without NADPH wells as a negative control for cytochrome P450 metabolism. In addition to hepatic metabolism, compounds were also subjected to degradation/modification by enzymes in human (VWR International) and mouse (Biomedica, CZ) plasma for t = 0, 30, 60, and at t = 120 min. Each assay included a substrate with known activity as a positive control. Time points were analyzed by LC/MS/MS. The peak area for the parent compound is compared to the time zero sample in order to assess the amount of remaining compound.

[5] = Microsomal stability, human microsomes; format: in vitro ADME; settings: liver microsomes; for half-life at 5 μM: 0.5 mg/mL human microsomes, up to 45 min, read-out: Microsomal stability, t1/2 (min), human; for microsomal CLint at 5 μM: human microsomes, read-out: Microsomal clearance CLint (μl/min/mg), human
Protocol: as §1, with “Briefly, metabolic stability of compounds was assessed at a single concentration (5 μM) at t = 0, 10, 30, and at t = 45 min.” left out, “In addition to hepatic metabolism, compounds were also subjected to degradation/modification by enzymes in human (VWR International) and mouse (Biomedica, CZ) plasma for t = 0, 30, 60, and at t = 120 min.” left out

[6] = Microsomal stability, mouse microsomes; format: in vitro ADME; settings: liver microsomes; for half-life at 5 μM: 0.5 mg/mL mouse microsomes, up to 45 min, read-out: Microsomal stability, t1/2 (min), mouse
Protocol: as §1, with “Briefly, metabolic stability of compounds was assessed at a single concentration (5 μM) at t = 0, 10, 30, and at t = 45 min.” left out, “In addition to hepatic metabolism, compounds were also subjected to degradation/modification by enzymes in human (VWR International) and mouse (Biomedica, CZ) plasma for t = 0, 30, 60, and at t = 120 min.” left out

PXR [7] = target: T3, PXR (Homo sapiens, UniProt O75469); assay: cell-based; settings: PXR antagonism: PXR inhibition (IC50, μM), antagonist mode with 10 μM rifampicin; mean ± SD, n = 3
T3 sequence (O75469 1-434): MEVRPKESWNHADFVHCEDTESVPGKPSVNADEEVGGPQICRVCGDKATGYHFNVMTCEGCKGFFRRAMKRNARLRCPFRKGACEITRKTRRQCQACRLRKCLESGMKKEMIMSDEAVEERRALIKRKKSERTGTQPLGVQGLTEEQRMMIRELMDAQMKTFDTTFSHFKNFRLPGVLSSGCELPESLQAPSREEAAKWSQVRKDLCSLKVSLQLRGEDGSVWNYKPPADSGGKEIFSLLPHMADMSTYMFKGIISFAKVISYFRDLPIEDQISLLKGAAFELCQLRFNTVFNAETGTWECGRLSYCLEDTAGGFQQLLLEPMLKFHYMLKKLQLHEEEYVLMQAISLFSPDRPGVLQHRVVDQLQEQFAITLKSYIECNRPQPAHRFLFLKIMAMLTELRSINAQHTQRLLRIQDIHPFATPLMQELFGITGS

PXR [8] = tested on: PXR; set-up: method as in not given; settings: ref not given, cited from earlier work
wild-type PXR LBD = target: T4, wild-type PXR LBD (Homo sapiens, UniProt O75469); assay: Mammalian two-hybrid assay, wt-PXR LBD with SRC-1-VP16 in HepG2; format: cell-based; settings: MI891 at 10 μM
T4 construct: HepG2 cells were cotransfected with a GAL4-hPXR LBD construct and pSCR1-VP16 construct; expressed in transfected cells; host or cells: HepG2
T4 sequence (O75469 146-433 limits assumed): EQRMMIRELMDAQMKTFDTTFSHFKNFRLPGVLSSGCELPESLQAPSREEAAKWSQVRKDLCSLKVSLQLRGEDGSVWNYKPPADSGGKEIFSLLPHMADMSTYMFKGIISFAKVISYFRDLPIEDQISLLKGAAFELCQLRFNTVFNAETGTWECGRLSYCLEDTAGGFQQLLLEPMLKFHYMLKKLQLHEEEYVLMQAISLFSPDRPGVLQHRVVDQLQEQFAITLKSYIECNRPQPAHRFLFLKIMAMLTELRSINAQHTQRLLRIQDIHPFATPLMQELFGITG
Text: (§2) Additionally, the GAL4-PXR-LBD triple mutants (S247W/C284W/S208W) construct and wild-type GAL4-wtPXR vector were used for PXR LBD mutant functional two-hybrid assay as we described before. In the mammalian two-hybrid assay, HepG2 cells were cotransfected with a GAL4-hPXR LBD construct and pSCR1-VP16 construct. Renilla luciferase vector was used for the normalization of firefly luciferase activity to Renilla luciferase activity.

[9] = target: T5, triple mutant (S208W/S247W/C284W) PXR LBD (Homo sapiens, UniProt O75469, C284W/S208W/S247W); assay: Mammalian two-hybrid assay, obstructed triple mutant PXR LBD with SRC-1-VP16 in HepG2; format: cell-based
T5 construct: the GAL4-PXR-LBD triple mutants (S247W/C284W/S208W) construct; expressed in transfected cells; host or cells: HepG2
T5 sequence (O75469 146-433 S208W/S247W/C284W limits assumed): T4 sequence (O75469 146-433 limits assumed) with S63W, S102W, C139W
Text: as §2

HepaRG cells = assay: RT-qPCR gene expression in differentiated HepaRG cells; format: cell-based, human; settings: 48 h
Protocol: HepaRG cells (Sigma-Aldrich/Merck) were cultivated and differentiated on 12-well plates. Seeded at 26,600 cells/cm^2, they were maintained in William’s medium with supplements. After 14 days, differentiation into hepatocyte-like cells was induced using 1.5% DMSO for another 14 days.
RT-qPCR was utilized to investigate gene expression in HepaRG and PHH. Total RNA was extracted from these cells using the phenol–chloroform method. The concentration of the isolated RNA was then measured using a Nanodrop 1000 spectro-photometer (Thermo Fisher Scientific).
Following RNA isolation, reverse transcription was performed to convert RNA into complementary DNA (cDNA). This step was carried out using the High-capacity cDNA reverse transcription kit (Cat. No. 4374966, ThermoFisher Scientific). The resulting cDNA served as the template for subsequent qPCR reactions.
The qPCR reactions were conducted on the QuantStudio 6 Flex Real-Time PCR System (ThermoFisher Scientific, Waltham, Mas-sachusetts). For these reactions, TaqMan Universal master mix II (Cat. No. 4440047, ThermoFisher Scientific) and TaqMan assays (FAM) utilized in this study are detailed in the Supporting Information. To quantify gene expression, the cycle threshold (Ct) values of the target genes were normalized to the Ct values of reference genes HPRT1 or GAPDH (HepaRG) or TBP (PHH). The normalized values were then expressed as fold changes (2−ΔΔCt) relative to the DMSO control at the specified time points, with the control set as 1.

PXR [10] = tested on: PXR; set-up: method as in not given; settings: read-out: Ki printed beside SPA70 in Figure 6A; ref not given; cited from earlier work

| CAR TR-FRET (EC50, μM) (human CAR LBD [1]) | half-life [3] [min] | half-life [4] [min] | half-life at 5 μM [5] [min] | microsomal CLint at 5 μM [5] [µL/min/mg] | half-life at 5 μM [6] [min] | microsomal CLint at 5 μM ([6]; mouse microsomes, read-out: Microsomal clearance CLint (μl/min/mg), mouse) [µL/min/mg] | IC50 (PXR [7]) [µM] | CYP2B6 gene expression (HepaRG cells; MI891 5 μM, SPA70 5 μM) | CYP3A4 mRNA expression (HepaRG cells; alone or with rifampicin (5 μM), concentration-dependent) | SMILES | EC50 (human CAR LBD [2]) [µM] | IC50 (PXR [8]; quoted in the Introduction, read-out: PXR antagonist IC50) [µM] | effect on wt-PXR-LBD/SRC1-VP16 two-hybrid (wild-type PXR LBD) | activation of obstructed mutated PXR LBD two-hybrid [9] | IC50 (PXR [8]; read-out: IC50 printed beside SPA70 in Figure 6A) [µM] | Ki (PXR [10]) [µM] |
| --- | --- | --- | --- | --- | --- | --- | --- | --- | --- | --- | --- | --- | --- | --- | --- | --- |
| nb | > 120 | > 120 | 50 ± 4 | 28 ± 2 | 8 | 168 ± 8 | 12.4 ± 6 | – | – | NC(=O)c1cc(Cn2cc(-c3c(-c4ccc(Cl)cc4)nc4c(F)cccn34)nn2)ccc1Cl [Compound 8, 2-Chloro-5-((4-(2-(4-chlorophenyl)-8-fluoroimidazo[1,2-a]pyridin-3-yl)-1H-1,2,3-triazol-1-yl)methyl)benzamide] | 4.14 ± 0.2 | – | – | – | – | – |
| nb | > 120 | > 120 | 55 ± 9 | 26 ± 4 | > 45 | – | 6.46 ± 0.6 | – | – | NC(=O)c1cc(Cn2cc(-c3c(-c4ccc(Cl)cc4)nc4ccc(F)cn34)nn2)ccc1Cl [Compound 10, 2-Chloro-5-((4-(2-(4-chlorophenyl)-6-fluoroimidazo[1,2-a]pyridin-3-yl)-1H-1,2,3-triazol-1-yl)methyl)benzamide] | > 10 | – | – | – | – | – |
| – | – | – | – | – | – | – | – | – | – | CCC[C@H](CC)Oc1ccc(C(=O)OC)cc1NC(=O)c1nnn(-c2cc(OC)ccc2OC)c1C [SJPYT-331] | – | 0.0071 ± 0.0008 | – | – | – | – |
| – | – | – | – | – | – | – | – | downregulated | CYP3A4 mRNA suppression | COc1ccc(OC)c(-n2nnc(S(=O)(=O)c3ccc(C(C)(C)C)cc3)c2C)c1 [SPA70, reference compound] | – | – | activated the wild-type (wt) PXR LBD construct | Neither MI891 nor SPA70 activated the obstructed mutated PXR LBD | […] | […] |
